Measured values taken from PMC7459823, “Characterization of Five Novel Anti-MRSA Compounds Identified Using a Whole-Animal Caenorhabditis elegans/Galleria mellonella Sequential-Screening Approach” (Antibiotics, 2020).
In brackets after ≈: the same amount, converted by molar mass. Like-named read-outs stand apart in the source and are kept apart here.

Key:
[1] = test system: MRSA-MW2 infection of C. elegans; assay: C. elegans–MRSA-MW2 high-throughput screen (Z-score, alive versus dead worms); assay type: in vivo, Caenorhabditis elegans; settings: screening concentration 2.86 µg/mL, hits Z > 2
Excerpt: The five compounds: (4,4′,4″-(4-propyl-[1H]-pyrazole-1,3,5-triyl)trisphenol, PPT; (1S,2S)-2-[2-[[3-(1H-benzimidazol-2-yl)propyl]methylamino]ethyl]-6-fluoro-1,2,3,4-tetrahydro-1-(1-methylethyl)-2- naphthalenyl cyclopropanecarboxylate dihydrochloride, NNC; 4,5,6,7-tetrabromobenzotriazole, TBB; 3-[2-[2-chloro-4-[3-(2,6-dichlorophenyl)-5-(1-methylethyl)-4-isoxazolyl]methoxy]phenyl] ethenyl] benzoic acid, GW4064; and N-(cyclopropylmethoxy)-3,4,5-trifluoro-2-[(4-iodo-2-methylphenyl)amino] benzamide, PD198306) were purchased from Tocris Bioscience at the following levels of purity: PPT: >99.7%, NNC: >98%, TBB: >99%, GW4064: >97%, and PD198306: 98.8%. […] Hits were identified based on Z-scores. Z-scores are calculated from the ratio of alive versus dead worms after treatment with test compounds and represents the number of standard deviations (SD) the test compound differs from the mean using the formula Z = (x − μ)/σ; where x is the raw sample score, μ is the mean of the population and σ is the standard deviation of the population. Samples with Z > 2σ are considered hits.

[2] = test system: MRSA MW2 infection of Galleria mellonella larvae; assay: G. mellonella–MRSA survival assay; assay type: in vivo; settings: larvae infected with MRSA MW2 5 × 10^5 CFU, compound 10 mg/kg 2 h after infection, monitored 120 h; untreated 1 day
Method: Larvae were infected with MRSA MW2 (5 × 10^5 CFU) in the left rear proleg, and after two hours, the compounds were introduced separately at 10 mg/kg into the right rear proleg and larvae survival was monitored for 120 h.
Assays were performed as described previously. Briefly, sixteen randomly selected G. mellonella larvae (Vanderhorst, Inc., St. Mary’s, OH, USA) between 300–350 mg were used for each test group. MRSA-MW2 was grown in Tryptic Soy Broth (TSB), washed with phosphate buffered saline (PBS, pH = 7.4), and diluted to OD600 = 0.3 before inoculation into G. mellonella larvae. A 10-μL inoculum was injected into the last left proleg using a 10-μL Hamilton syringe. After 2 h, compounds were administered into the last right proleg and larvae were incubated at 37 °C. G.mellonella survival was monitored for 120 h, and death was confirmed when there was no response. Killing curves and differences in survival were analyzed by the Kaplan–Meier method using GraphPad Prism version 8 (GraphPad Software, La Jolla, CA, USA). Statistical analysis (Kruskal–Wallis test) was carried out using the same program.

MRSA MW2 [3] = assay: Broth microdilution antibacterial susceptibility (MIC/MBC), MRSA MW2; assay type: cell-based, Staphylococcus aureus; settings: for MBC: MRSA MW2
Method: (§1) In vitro antibacterial activities were determined using the broth microdilution method. Assays were performed as described in Clinical and Laboratory Standards Institute protocols in triplicate using cation-adjusted Muller–Hinton broth (Becton Dickinson and Company, Franklin Lakes, NJ, USA) in 96-well plates with a total assay volume of 100 µL. Two-fold serial dilutions of test compounds were prepared over the concentration range of 1–64 µg/mL. The bacterial concentration was adjusted to OD600 = 0.06. […] A 10 µL aliquot from each well in the MIC assays was plated onto Muller–Hinton agar (Becton Dickinson and Company, Franklin Lakes, NJ, USA) and incubated overnight at 37 °C. The lowest concentration of compound for which no growth was observed on agar plates was reported as the minimal bactericidal concentration (MBC).

[4] = test system: clinical S. aureus isolate BF2; assay: Broth microdilution MIC, clinical S. aureus isolate BF2; assay type: cell-based; settings: Staphylococcus aureus; BF2; read-out: MIC
Method: as §1

[5] = test system: clinical S. aureus isolate BF3; assay: Broth microdilution MIC, clinical S. aureus isolate BF3; assay type: cell-based; settings: Staphylococcus aureus; BF3; read-out: MIC
Method: as §1

Enterococcus faecium = assay: Broth microdilution MIC, Enterococcus faecium; assay type: cell-based; settings: read-out: MIC
Method: as §1

Acinetobacter baumannii = assay: Broth microdilution MIC, Acinetobacter baumannii; assay type: cell-based; settings: read-out: MIC
Method: as §1

Enterobactor aerogens = assay: Broth microdilution MIC, Enterobactor aerogens; assay type: cell-based; settings: Enterobactor aerogens; read-out: MIC
Method: as §1

Pseudomonas aeruginosa = assay: Broth microdilution MIC, Pseudomonas aeruginosa; assay type: cell-based; settings: read-out: MIC
Method: as §1

MRSA MW2 [6] = assay: Sytox green membrane permeabilization; assay type: cell-based, Staphylococcus aureus; settings: compounds at 64 µg/mL, monitored over 1 h
Method: To determine whether the compounds target bacterial membranes, MRSA MW2 was treated with the compounds and uptake of the membrane-impermeable DNA-binding fluorescent dye Sytox green was monitored over 1 h (Figure 4).
Sytox Green (Life Technologies, Needham, MA, USA) membrane permeabilization assays were performed as previously described. The experiments were carried out in duplicate in 96-well plates. Cells were grown to log phase and were harvested by centrifuging at 3700× g for 5 min. The cells were washed twice with PBS and resuspended to OD600 = 0.2, following which 5 µM Sytox green was added to the cells and the bacteria-dye mixture were incubated in the dark for 30 mins.
Cell suspensions (50 µL) were added to 50 µL of test compounds (64 µg/mL in PBS) and fluorescence intensity was measured (excitation 485 nm, emission 530 nm) periodically over 60 min.

MRSA-MW2 = assay: Checkerboard synergy assay (FIC index); assay type: cell-based, Staphylococcus aureus; settings: synergy FIC ≤ 0.5
Method: The combination of two antibiotics with different modes of action can reduce bacterial resistance and sometimes even restore clinical efficacy of an antibiotic that has lost effectiveness. The five compounds were tested against MRSA-MW2 in the presence of five clinical antibiotics from different classes (i.e., polymyxin B, gentamycin, erythromycin, doxycycline, and oxacillin).
Antibacterial synergy for combinations of the compounds with each other and with clinical antibiotics (doxycycline, gentamicin, polymyxin-B, oxacillin, and erythromycin) was measured using checkerboard assays. In short, Cultures of MRSA-MW2 were adjusted to OD600 = 0.06 and one compound was arrayed horizontally and other vertically in 96 well plates. The assays were carried out in triplicate, exactly as described for the antibacterial susceptibility assays. The inhibitory effects of compound combinations were evaluated using the Fractional Inhibitory Concentration (FIC) index, derived from the formula:FIC index = FICA + FICB = [A]/MICA + [B]/MICB
MIC of substance A tested in combination /MIC of substance A tested alone + MIC of substance B tested in combination/MIC of substance B tested alone. Synergy is indicated when FIC ≤ 0.5, indifference when 0.5 ≤ FIC ≤ 4, and antagonism when FIC > 4. Experiments were performed in duplicate and report the average FIC index.

HepG2 = settings: human, 24 h
Method: (§2) Mammalian cell lines HepG2 (hepatic cells), A549 (epithelial cells), and MKN-28 (gastric cells) were used to measure the anti-proliferative properties of test compounds, as described elsewhere [28]. Cells were grown in Dulbecco’s Modified Eagle Medium (DMEM) (Gibco, Waltham, MA, USA) supplemented with 10% Fetal Bovine Serum (FBS) (Gibco, Waltham, MA, USA) and 1% penicillin/streptomycin (Gibco, Waltham, MA, USA) and maintained at 37 °C in 5% CO2. After harvesting, the cells were suspended in DMEM and 100 µL was added to the wells of 96-well plates. The test compounds were serially diluted in serum and antibiotic free DMEM, added to the monolayer of cells, and incubated at 37 °C in 5% CO2 for 24 hr. Percentage survival was calculated by comparison to DMSO-treated vehicle controls. Assays were carried out in triplicate.

A549 = settings: human, 24 h
Method: as §2

MKN-28 = settings: human, 24 h
Method: as §2

- MIC (MRSA MW2 [3]; Staphylococcus aureus, MRSA MW2, 18 h, 37 °C, read-out: MIC): 2 mg/L (≈ 4.2 µM)
- MIC [4]: 2 mg/L (≈ 4.2 µM)
- MIC [5]: 2 mg/L (≈ 4.2 µM)
- MIC (Enterococcus faecium): 2 mg/L (≈ 4.2 µM)
- MIC (Acinetobacter baumannii): 32 mg/L (≈ 67.2 µM)
- MIC (Enterobactor aerogens): > 64 mg/L
- MIC (Pseudomonas aeruginosa): > 64 mg/L
SMILES: Cc1cc(I)ccc1Nc1c(C(=O)NOCC2CC2)cc(F)c(F)c1F [PD198306, N-(Cyclopropylmethoxy)-3,4,5-trifluoro-2-[(4-iodo-2-methylphenyl)amino]-benzamide]
- Z-Score [1]: 3.43
- median post-infection survival [2]: 2 days
- MBC (MRSA MW2 [3]): >64 mg/L
- MBC (MRSA MW2 [3]; Staphylococcus aureus, read-out: MBC): > 64 mg/L
- cellular fluorescence (Sytox green uptake) (MRSA MW2 [6]): no changes in cellular fluorescence
- Fractional Inhibitory Concentration (FIC) Index (MRSA-MW2; with Doxycycline): 2.0
- Fractional Inhibitory Concentration (FIC) Index (MRSA-MW2; with Erythromycin): 0.5
- Fractional Inhibitory Concentration (FIC) Index (MRSA-MW2; with Gentamycin): 0.625
- Fractional Inhibitory Concentration (FIC) Index (MRSA-MW2; with Oxacillin): 0.75
- Fractional Inhibitory Concentration (FIC) Index (MRSA-MW2; with Polymyxin B): 1.0
- Eukaryotic cell cytotoxicity (HepG2): 2 µg/mL
- Eukaryotic cell cytotoxicity (A549): 16 µg/mL
- Eukaryotic cell cytotoxicity (MKN-28): 16 µg/mL
